Measurements taken from the supplement of paper PMC10307832.

Experiments:
Assay in all cases: relative viability (nuclei count vs DMSO), 5 days (fraction); higher = more cells survive
NCI-H1993 = system: NCI-H1993
Method in brief: (§1)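 Medians of duplicate plates are given as relative viability. That measure is the nuclei count in treated wells divided by the count in vehicle wells. Counts were taken on 4× images of lung cancer cell lines in 1536-well plates, 5 days after pin-tool dosing the day after seeding with one drug alone or a fixed anchor-drug dose plus five library-drug doses (not always all listed) in √10 steps.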

NCI-H2342 = system: NCI-H2342
Method in brief: as §1

ChaGo-K-1 = system: ChaGo-K-1
Method in brief: as §1

NCI-H2405 = system: NCI-H2405
Method in brief: as §1

NCI-H23 = system: NCI-H23
Method in brief: as §1

NCI-H1734 = system: NCI-H1734
Method in brief: as §1

NCI-H1975 = system: NCI-H1975
Method in brief: as §1

HCC-78 = system: HCC-78
Method in brief: as §1

NCI-H1355 = system: NCI-H1355
Method in brief: as §1

LCLC-97TM1 = system: LCLC-97TM1
Method in brief: as §1

NCI-H2126 = system: NCI-H2126
Method in brief: as §1

NCI-H596 = system: NCI-H596
Method in brief: as §1

HOP-62 = system: HOP-62
Method in brief: as §1

NCI-H358 = system: NCI-H358
Method in brief: as §1

NCI-H1703 = system: NCI-H1703
Method in brief: as §1

NCI-H460 = system: NCI-H460
Method in brief: as §1

PC-3 [JPC-3] = system: PC-3 [JPC-3]
Method in brief: as §1

LK-2 = system: LK-2
Method in brief: as §1

NCI-H1944 = system: NCI-H1944
Method in brief: as §1

NCI-H1648 = system: NCI-H1648
Method in brief: as §1

NCI-H1755 = system: NCI-H1755
Method in brief: as §1

NCI-H727 = system: NCI-H727
Method in brief: as §1

## Nc1cccc2c1CN(C1CCC(=O)NC1=O)C2=O (stereo not given) [Lenalidomide] + NC(=O)Nc1cc(-c2cccc(F)c2)sc1C(=O)N[C@H]1CCCNC1 [AZD7762] (partner 0.2 µM)
NCI-H1993; first compound 0.253 µM
  relative viability: 0.587
NCI-H1993; first compound 0.8 µM
  relative viability: 0.646
NCI-H1993; first compound 2.53 µM
  relative viability: 0.702
NCI-H1993; first compound 8 µM
  relative viability: 0.539
NCI-H2342; first compound 0.253 µM
  relative viability: 0.494
NCI-H2342; first compound 0.8 µM
  relative viability: 0.402
NCI-H2342; first compound 2.53 µM
  relative viability: 0.529
NCI-H2342; first compound 8 µM
  relative viability: 0.449
ChaGo-K-1; first compound 0.253 µM
  relative viability: 0.916
ChaGo-K-1; first compound 0.8 µM
  relative viability: 0.853
ChaGo-K-1; first compound 2.53 µM
  relative viability: 1.02
ChaGo-K-1; first compound 8 µM
  relative viability: 0.893
NCI-H2405; first compound 0.253 µM
  relative viability: 0.681
NCI-H2405; first compound 0.8 µM
  relative viability: 0.498
NCI-H2405; first compound 2.53 µM
  relative viability: 0.815
NCI-H2405; first compound 8 µM
  relative viability: 0.821
NCI-H23; first compound 0.253 µM
  relative viability: 0.253
NCI-H23; first compound 2.53 µM
  relative viability: 0.22
NCI-H23; first compound 8 µM
  relative viability: 0.229
NCI-H1734; first compound 0.253 µM
  relative viability: 0.586
NCI-H1734; first compound 0.8 µM
  relative viability: 0.597
NCI-H1734; first compound 2.53 µM
  relative viability: 0.618
NCI-H1734; first compound 8 µM
  relative viability: 0.494
NCI-H1975; first compound 0.253 µM
  relative viability: 0.8
NCI-H1975; first compound 0.8 µM
  relative viability: 0.642
NCI-H1975; first compound 2.53 µM
  relative viability: 0.776
NCI-H1975; first compound 8 µM
  relative viability: 0.713
HCC-78; first compound 0.253 µM
  relative viability: 0.767
HCC-78; first compound 0.8 µM
  relative viability: 0.537
HCC-78; first compound 2.53 µM
  relative viability: 0.617
HCC-78; first compound 8 µM
  relative viability: 0.417
NCI-H1355; first compound 0.253 µM
  relative viability: 0.798
NCI-H1355; first compound 0.8 µM
  relative viability: 0.59
NCI-H1355; first compound 2.53 µM
  relative viability: 0.765
NCI-H1355; first compound 8 µM
  relative viability: 0.696
LCLC-97TM1; first compound 0.253 µM
  relative viability: 0.304
LCLC-97TM1; first compound 0.8 µM
  relative viability: 0.114
LCLC-97TM1; first compound 2.53 µM
  relative viability: 0.364
LCLC-97TM1; first compound 8 µM
  relative viability: 0.222
NCI-H2126; first compound 0.253 µM
  relative viability: 0.973
NCI-H2126; first compound 0.8 µM
  relative viability: 1.03
NCI-H2126; first compound 2.53 µM
  relative viability: 1.05
NCI-H2126; first compound 8 µM
  relative viability: 0.947
NCI-H596; first compound 0.253 µM
  relative viability: 1.13
NCI-H596; first compound 0.8 µM
  relative viability: 1.09
NCI-H596; first compound 2.53 µM
  relative viability: 1.1
NCI-H596; first compound 8 µM
  relative viability: 1
HOP-62; first compound 0.253 µM
  relative viability: 0.552
HOP-62; first compound 0.8 µM
  relative viability: 0.838
HOP-62; first compound 2.53 µM
  relative viability: 0.711
HOP-62; first compound 8 µM
  relative viability: 0.533
NCI-H358; first compound 0.253 µM
  relative viability: 0.521
NCI-H358; first compound 0.8 µM
  relative viability: 0.713
NCI-H358; first compound 2.53 µM
  relative viability: 0.494
NCI-H358; first compound 8 µM
  relative viability: 0.621
NCI-H1703; first compound 0.253 µM
  relative viability: 0.123
NCI-H1703; first compound 0.8 µM
  relative viability: 0.117
NCI-H1703; first compound 2.53 µM
  relative viability: 0.131
NCI-H1703; first compound 8 µM
  relative viability: 0.135
NCI-H460; first compound 0.253 µM
  relative viability: 0.578
NCI-H460; first compound 0.8 µM
  relative viability: 0.567
NCI-H460; first compound 2.53 µM
  relative viability: 0.596
NCI-H460; first compound 8 µM
  relative viability: 0.754
PC-3 [JPC-3]; first compound 0.253 µM
  relative viability: 0.888
PC-3 [JPC-3]; first compound 0.8 µM
  relative viability: 0.467
PC-3 [JPC-3]; first compound 2.53 µM
  relative viability: 0.944
PC-3 [JPC-3]; first compound 8 µM
  relative viability: 0.667
LK-2; first compound 0.253 µM
  relative viability: 0.511
LK-2; first compound 0.8 µM
  relative viability: 0.366
LK-2; first compound 2.53 µM
  relative viability: 0.33
LK-2; first compound 8 µM
  relative viability: 0.206
NCI-H1944; first compound 0.253 µM
  relative viability: 0.545
NCI-H1944; first compound 2.53 µM
  relative viability: 0.709
NCI-H1944; first compound 8 µM
  relative viability: 0.386
NCI-H1648; first compound 0.253 µM
  relative viability: 0.591
NCI-H1648; first compound 2.53 µM
  relative viability: 0.626
NCI-H1648; first compound 8 µM
  relative viability: 0.689
NCI-H1755; first compound 0.253 µM
  relative viability: 0.458
NCI-H1755; first compound 0.8 µM
  relative viability: 0.498
NCI-H1755; first compound 2.53 µM
  relative viability: 0.452
NCI-H1755; first compound 8 µM
  relative viability: 0.454
NCI-H727; first compound 0.253 µM
  relative viability: 0.655
NCI-H727; first compound 0.8 µM
  relative viability: 0.574
NCI-H727; first compound 2.53 µM
  relative viability: 0.555
NCI-H727; first compound 8 µM
  relative viability: 0.709
